The source of these data is the NIST ThermoML archive (doi:10.1016/j.tca.2018.05.015).

The conditions of the series: for mass density: 101.33 kPa, X-ray diffraction; for Triple point temperature: DSC.

Numbers after ± are expanded uncertainties.

One may read the mass density as the mass of a sample divided by its volume. As to `CC(C)(C#N)N=NC(C)(C)C#N` [2,2'-dimethyl-2,2'-azodipropionitrile], the mass density (346.15 K, Crystal 2) was found to be 1100 ± 22 kg/m3 and the mass density (356.15 K, Crystal 1) was 1096 ± 22 kg/m3. Further, the Triple point temperature runs as follows: (Crystal 1) 373.15 ± 5 K; (Crystal 2) 351.15 ± 5 K.
